Source: patent US20160304957A1, “TREATMENT AND MODULATION OF GENE EXPRESSION AND SKIN AGING” (DSM NUTRITIONAL PRODUCTS LTD., priority 2006, published 2016)

System: HaCaT human keratinocytes
Experiment: Affymetrix GeneChip microarray, transcriptional response to β-carotene and/or UVA
Format: cell-based
Details: β-carotene 1.5 μM, unirradiated
Procedure: The cell culture experiments were carried out as described. Briefly, a subclone of passage 65 HaCaT keratinocytes, selected for differentiation capacity, was used at passages 16 to 23 after subcloning. 2×10^5 cells were seeded per 60 millimeter dish. Starting the following day, the cells were pretreated for 2 days with β-carotene at 1.5 μM, a typical concentration in human plasma after moderate dietary supplementation)
β-carotene-containing medium was prepared as follows. Fresh all-E-β-carotene (DSM Nutritional Products, Kaiseraugst, Switzerland) stock solution in THF (containing 0.025% BHT; Fluka Chemie A G, Switzerland) was diluted 1:2 with ethanol and added to cell culture medium to a final concentration of 1.5 μM β-carotene. The solvent concentration in the medium was 0.5% for all treatments. β-carotene-containing medium was prepared fresh for the daily medium changes.
On day 3 of the experiment, the cells were irradiated with a Hönle sun lamp Sol 500 (270 kJ/m^2; Dr. Hönle, Germany).
Five independent, factorially designed cell irradiation experiments were analyzed by microarray hybridization. For each experiment, one chip was hybridized per treatment condition. GeneChip® analysis was done as described in [132], which is incorporated by reference, as if recited in full herein. Gene regulation by β-carotene and/or UVA was calculated relative to placebo.
Changes in gene expression were included in further analysis only if the change factor was […], and if unpaired t-tests yielded p values≦0.05. Upregulations by a […] are labeled bold, downregulations by a change factor of […] are labeled bold italics. (Table 1) To identify the pathways affected by the treatments functional information on the genes was retrieved from public literature databases.

CC1=C(/C=C/C(C)=C/C=C/C(C)=C/C=C/C=C(C)/C=C/C=C(C)/C=C/C2=C(C)CCCC2(C)C)C(C)(C)CCC1 [β-carotene, All-E-β-carotene]
N-RAS (X02751) change factor: −1.2
NCF2; p67-phox; neutrophil oxidase factor (M32011) change factor: −0.8
NF-κB subunit (S78771) change factor: −0.1
NF-κB subunit (X61498) change factor: −0.07
NFκB; p50 (S76638) change factor: −0.46
NOL1; p120 nucleolar antigen (X55504) change factor: 0.04
NOTCH3 (U97669) change factor: −0.8
NOV (X96584) change factor: −0.7
NOXA (D90070) change factor: −0.26
NRF1 (L24123) change factor: −0.27
NRF2, subunit beta 1 (U13045) change factor: −1.5
OSR1; oxidative-stress responsive 1 (AB017642) change factor: −0.18
PAR-1; thrombin receptor (M62424) change factor: −0.5
PAR-2; proteinase activated receptor-2 (U34038) change factor: −0.27
PAR-2; proteinase activated receptor-2 (U34038, second entry) change factor: −0.03
PAR-2; proteinase activated receptor-2 (U67058) change factor: 0.03
PAR-4; protease-activated receptor 4 (AF055917) change factor: −0.49
RAIDD; death adaptor molecule (U79115) change factor: −0.22
RB1 (L49229) change factor: −0.8
RB2/p130 (X74594) change factor: −0.6
RETSDR1; retinal short-chain dehydrogenase/reductase (AF061741) change factor: 1.1
RPA; replication protein A 14 kda subunit (rpa) (L07493) change factor: −0.04
RXRα (U66306) change factor: −0.2
RXRα (X52773) change factor: −0.2
Requiem (AF001433) change factor: 0.5
SMAD 1 (U59423) change factor: −0.27
SMAD3 (U68019) change factor: 0.5
SMAD3 (U68019, second entry) change factor: 0.18
SMAD4 (U44378) change factor: −0.7
SMAD5 (U59913) change factor: −0.9
SMAD6 (AF035528) change factor: −0.47
SMAD7 (AF010193) change factor: −0.19
SMRT (U37146) change factor: −0.33
STK15; BTAK (AF011468) change factor: −0.18
TDAG51; PQ-rich protein; PHLDA1 (Z50194) change factor: 0.27
TGFβ; transforming growth factor β (X02812) change factor: 0.9
TIAR; nucleolysin tiar (M96954) change factor: −0.45
TIEG, EGRα (AF050110) change factor: −0.8
TLR3; toll-like receptor 3 (U88879) change factor: 0.6
TOP2; topoisomerase II (J04088) change factor: −0.22
TRADD; TNF receptor-1 associated protein (L41690) change factor: 0.23
TRAIL; TNF-related apoptosis inducing ligand (U37518) change factor: 0.15
TRIP14; ‘2-5’ oligoadenylate synthetase (AJ225089) change factor: −0.07
TRIP (U77845) change factor: −0.06
TSSC3 (AF035444) change factor: −0.44
TSSC3/IPL (AF001294) change factor: −0.6
VEGF (AF022375) change factor: −0.5
VEGF (AF024710) change factor: 0.02
VEGF (M63978) change factor: −0.48
VEGFR2; VEGF receptor 2; KDR; FLK-1kdr/flk-1 (AF035121) change factor: 0.6
WEE1 (X62048) change factor: −0.6
WNT5A (I20861) change factor: −0.47
WNT5A (I20861, second entry) change factor: −1.7
XRCC4 (U40622) change factor: −0.05
bFGF; basic fibroblast growth factor; FGF2 (M27968) change factor: 0.1
bilirubin udp-glucuronosyltransferase isozyme 2 (M57951) change factor: −0.25
bullous pemphigoid autoantigen bp180 (M91669) change factor: −0.45
c-myc (V00568) change factor: 0.1
c-myc (V00568, second entry) change factor: 0.1
c-myc binding protein (mbp-1) (M55914) change factor: 0.5
caspase 2, ICH-1S (U13022) change factor: −0.31
caspase 7 (U67319) change factor: −0.09
ceruloplasmin (ferroxidase) (M13699) change factor: 1
collagen type IV, α-2 (COL4A2) (X05610) change factor: −0.13
collagen type IV, α-5 (COL4A5) (M58526) change factor: −0.8
collagen type IV, α-6 (COL4A6) (D21337) change factor: −0.44
collagen type VII, α-1 (COL7A1) (L02870) change factor: −0.21
connexin 31 (AF099730) change factor: 0.17
connexin 45 (U03493) change factor: −0.06
coproporphyrinogen oxidase (D16611) change factor: −0.21
cyclin E2 (AF091433) change factor: −0.25
cyclin E (M73812) change factor: −0.23
desmocollin type 4 (D17427) change factor: −1.3
ferritin heavy chain (L20941) change factor: 0.36
frizzled-2 (I37882) change factor: −0.03
frizzled-6 (AB012911) change factor: −0.5
haemochromatosis protein (hla-h) (U60319) change factor: 0.15
hsp40; heat shock protein 40 (U40992) change factor: −0.6
integrin α6 (X53586) change factor: −1.1
integrin α6b (S66213) change factor: −0.9
integrin α6b (S66213, second entry) change factor: −1.3
jagged2 (jag2) (AF029778) change factor: −0.02
keratin 2e (KRT2E); Keratin 2A (AF019084) change factor: −0.46
keratin 5 (M21389) change factor: 0.9
keratin 15 (J00124) change factor: 1
keratin 16 (M28439) change factor: −2
keratin 17 (Z19574) change factor: 0.04
mKI67a mrna (long type) for antigen of monoclonal antibody KI-67 (X65550) change factor: −0.3
mKI67a mrna (long type) for antigen of monoclonal antibody KI-67 (X65550, second entry) change factor: −0.17
ornithine decarboxylase (M33764) change factor: −0.2
ornithine decarboxylase (X16277) change factor: −0.32
p21; wild-type p53 activated fragment-1 (WAF1) (U03106) change factor: −0.5
p33; ING1b (AB024401) change factor: −0.47
p160ROCK (U43195) change factor: −0.28
protoporphyrinogen oxidase (D38537) change factor: −0.32
rTS α (X67098) change factor: 0.13
serpinB1 (M93056) change factor: 0.7
stimulator of Fe transport (AF020761) change factor: 0.03
thioredoxin reductase (X91247) change factor: −0.08
thymidylate synthase (X02308) change factor: −0.12
transferrin receptor (X01060) change factor: −0.05
uroporphyrinogen III synthase (J03824) change factor: −0.15
α topoisomerase truncated-form (L47276) change factor: −0.43
